Assay results published in patent publication US20120308567A1, “USE OF TYROSINE KINASE INHIBITORS FOR TREATMENT OF PROLACTINOMA” (CEDARS-SINAI MEDICAL CENTER, priority 2010, published 2012).
“Also recorded” adds a separate entry of the source.

Legend:
[1] = tested on: GH3 cells stably expressing HER2CA; test: RIA of PRL and GH secretion in culture medium of GH3 stable transfectants; format: cell-based, rat; details: HER2CA GH3 cells, 1 μM
Method: μM) for the indicated times, and Realtime PCR analysis performed. C. GH and PRL secretion in the culture medium determined by RIA. Hormone secretion levels were normalized for cell numbers, Values are mean±SEM. *p<0.05, **p<0.01.
GH3 rat lacto-somatotroph tumor cells secreting PRL and GH were purchased from the American Type Culture Collection. HER2CA cells were generated by transfection with pcDNA3-HER2CA (V654E) purchased from Addgene (Addgene plasmid 16259). Stable colonies were selected in the presence of 500 μg/ml G418 (Invitrogen). A vector control cell line pcDNA3 was simultaneously established by transfecting pcDNA3 that lacked inserted cDNA. After selection and propagation of stable transfectants, cells were cultured in DMEM/F12 medium containing 15% horse serum, 2.5% FBS, penicillin/streptomycin, and 500 μg/m G418. After synchronization by serum starvation (medium containing 0.2% bovine serum albumin for ˜24 h), cells with treatment agents was grown in fresh serum-depleted medium (0.2% bovine serum albumin), and samples collected at the indicated times.
RIAs for rat GH and PRL were performed in duplicate, using reagents provided by the National Hormone and Pituitary Program, National Institute of Diabetes and Digestive and Kidney Diseases (Harbor-UCLA Medical Center, Torrance, Calif., USA). Iodination of GH and PRL (5 μg) with iodine-125 (500 μCi) (PerkinElmer life & Analytical Sciences, Boston, Mass., USA) mixed with 0.1 mg Iodo-Gen (Pierce, Rockford, Ill.) was performed using 10-ml columns prepared by G-75 Sephadex (Sigma Chemical Co.). Low interspecies cross-reactivity of the GH and PRL assays were previously shown (8).

[2] = tested on: GH3 cells stably expressing HER2CA; test: Cell proliferation assay (cell counts); format: cell-based, rat; details: for cell number: HER2CA GH3 cells, 0.1-10 μM, 24 h treatment
Method: pcDNA3 and HER2CA cells were plated at a density of 2×10^4 per well in 12-well plates or 4×10^3 cells per well in 96-well plates with growth medium. For 12-well plates, cells were counted by hemocytometer at the indicated times. For 96-well plates, premixed WST-1 cell proliferation reagent (Roche Molecular Biochemicals) was added (1:10) at the indicated times and incubated for 4 h at 37° C. in a humidified atmosphere maintained at 5% CO2, and absorbance was then measured at 450 nm. WST-1 is a colorimetric assay for quantification of cell proliferation and cell viability, based on the cleavage of the tetrazolium salt by mitochondrial dehydrogenases in viable cells.

[3] = tested on: GH3 cells stably expressing HER2CA; test: Soft agarose colony-forming assay, HER2CA transfectants; format: cell-based, rat; details: for suppression of colony formation in soft agar: Her2CA-GH3 cells
Method: B. GH3 cells stably expressing HER2CA or pcDNA3 were plated (4,000 per well) in 96 well plates for the indicated times, and WST assay performed. C. […] Values are mean±SEM. *p<0.05, ** p<0.01, ^‡p<0.05 vs pcDNA3 control, ^†p<0.05 vs HER2CA control, ^‡‡p<0.05 vs pcDNA3 control, ^††p<0.05 vs HER2CA control.
Base layers consisting of growth medium containing 0.6% low-melting point agarose (Invitrogen) were poured onto 6-well plates and allowed to solidify. Cells (8×10^3 per well) were plated in triplicate in top layers consisting of growth medium containing 0.3% agarose. Seven to ten days later, cells were stained with 0.2% iodonitrotetrazolium chloride (Invitrogen), and colonies composed of 50 cells were counted manually in 5 randomly selected fields.

human prolactinoma cells [4] = test: Realtime PCR of PRL in primary human prolactinoma cell cultures; format: cell-based; details: for suppression of PRL mRNA levels: 24 hr
Method: (§1) A, B, D, and E. After trans-sphenoidal surgery of human prolactinomas, tumor cells were cultured. […] PRL levels in culture media were measured using RIA (B). H&E and PRL staining of tumor and confocal immunocytochemistry of EGFR and HER2 (Tumor A) (C), or for Tumor B (F). Magnification of these figures was 100×. […] PRL levels in culture media were measured using RIA (E). Prolactinoma cells (Tumor B) were treated with U0126 (0.1-5 μM) for 24 hr, and Realtime PCR of PRL performed (G).
Total RNA was extracted with Trizol reagent (Invitrogen) according to instructions of the manufacturer. The amount and the integrity of RNA were assessed by measurement of absorbance at 260 and 280 nm. Total RNA was reverse-transcribed into first-strand cDNA using iScript cDNA synthesis kit (Bio-Rad Laboratories, Inc.) according to the manufacturer. Quantitative PCR reactions were carried out in the iQ5 Multicolor Real-time PCR Detection System (Bio-Rad Laboratories, Inc.) as described (8). Certified RT^2 primer assays for rat GH, PRL and human PRL were purchased from SuperArray. Primer sequences (Invitrogen) were 5′-[…]-3′ (18S rRNA forward (F)), 5′-[…]-3′ (18S rRNA reverse (R)), 5′-[…]-3′ (human (3-actin F), 5′-[…]-3′ (human (3-actin R), 5′-[…]-3′ (human GAPDH F), 5′-[…]-3′ (human GAPDH R).
(§2) Human prolactinoma tissues were obtained at the time of surgery (Pituitary Center, Cedars-Sinai Medical Center) and transferred in 0.3% BSA containing DMEM according to an IRB-approved protocol. After washing with medium, tumor tissues were chopped with a sterile scalpel into approximately 1-2 mm pieces. Tissues were rinsed and digested with DMEM containing 0.3% BSA, 0.35% collagenase, and 0.15% hyaluronidase at 37° C. for 30 min The mixture was centrifuged at 1,500 rpm for 5 min at 4° C., and the cell pellet resuspended in an appropriate volume of culture medium containing 10% FBS and antibiotics in 48 well plates. After 24 hr incubation with serum depleted starvation medium (DMEM with 0.3% BSA), treatment agents were added with fresh serum-depleted medium (0.3% BSA), and medium collected for RIA. RNA was extracted after 24 hr treatment. Medium was also collected at baseline. To normalize for cell number effect, the PRL value of treated medium was divided by that of pre-treatment starvation medium to obtain a treated value for each well (n=4).

human prolactinoma cells [5] = test: RIA of PRL in culture media of primary human prolactinoma cell cultures; format: cell-based; details: for suppression of PRL secretion into the culture medium: 24 hr
Method: as §1, §2

[6] = tested on: GH3 cells stably expressing HER2CA; test: Western blotting of cleaved caspase-3 (apoptosis); details: 0.1-10 μM, 24 hr
[7] = Tumor A, lapatinib 0.1-10 μM or gefitinib 10 μM
[8] = human primary prolactinoma tumor cell cultures, tumor not named

Row | SMILES | PRL secretion, time course of suppression ([1]; 24 and 48 h) | cell number [2] | suppression of colony formation in soft agar [3] [%] | suppression of PRL mRNA levels (human prolactinoma cells [4]; [7]) | suppression of PRL mRNA levels (human prolactinoma cells [4]; Tumor B, 0.01-10 μM) [%] | suppression of PRL secretion into the culture medium (human prolactinoma cells [5]; [7]) [%] | suppression of PRL secretion into the culture medium (human prolactinoma cells [5]; Tumor B, 0.01-10 μM) [%] | induction of cleaved caspase-3 [6] | suppression of PRL secretion ([1]; 24 h) [%] | suppression of PRL secretion ([1]; 48 h) [%] | suppression of cell number, HER2 overexpressing vs pcDNA3 transfectants ([2]; pcDNA3 and HER2CA transfectants compared) | colony formation in soft agar ([3]; HER2CA GH3 cells, 0.1-10 μM every third day) | suppression of human PRL mRNA expression (human prolactinoma cells [4]; [8]) [%] | suppression of human PRL secretion (human prolactinoma cells [5]; [8]) [%]
1 | COc1cc2ncnc(Nc3ccc(F)c(Cl)c3)c2cc1OCCCN1CCOCC1 [gefitinib] | suppressed PRL secretion only at 24 h | decreased in a dose-dependent manner | ~50 | no effect | ~45 | ~50 | ~40 | dose-dependently induced cleaved caspase3 | – | – | – | – | – | –
2 | CS(=O)(=O)CCNCc1ccc(-c2ccc3ncnc(Nc4ccc(OCc5cccc(F)c5)c(Cl)c4)c3c2)o1 [lapatinib, Lapatinib] | – | decreased in a dose-dependent manner | ~80 | ~90% | ~45 | ~70 | ~60 | dose-dependently induced cleaved caspase3; also recorded: induced cleaved-caspase 3 | 40 | 40 | enhanced in HER2 overexpressing transfectants | fewer HER2CA colonies | ~80 | ~70
